Assay results published in US11945822B2, “Pyrazolo-triazine and/or pyrazolo-pxrimidine derivatives as selective inhibitor of cyclin dependent kinase” (QURIENT CO., LTD., priority 2018, dated 2024).
Read-outs that look alike come from different tables or passages of the source.

What was measured:
H460 = test: Cellular H460 viability assay (CellTiter-Glo, 72 hours); format: cell-based; settings: Homo sapiens, NCI-H460
Summary of the method: (§1)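 CellTiter-Glo luminescence read in duplicate after 72 h compound exposure (37 °C, 5% CO2); DMSO-only control, final DMSO under 0.1%.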

CDK5/p25 = molecular target: T1, CDK5/p25 (Homo sapiens, UniProt Q00535); test: Enzymatic assay for CDK5 (FRET based LANCE Ultra kinase assay); format: biochemical
T1 construct: purchased Invitrogen PR8543B
T1 sequence (Q00535 whole entry): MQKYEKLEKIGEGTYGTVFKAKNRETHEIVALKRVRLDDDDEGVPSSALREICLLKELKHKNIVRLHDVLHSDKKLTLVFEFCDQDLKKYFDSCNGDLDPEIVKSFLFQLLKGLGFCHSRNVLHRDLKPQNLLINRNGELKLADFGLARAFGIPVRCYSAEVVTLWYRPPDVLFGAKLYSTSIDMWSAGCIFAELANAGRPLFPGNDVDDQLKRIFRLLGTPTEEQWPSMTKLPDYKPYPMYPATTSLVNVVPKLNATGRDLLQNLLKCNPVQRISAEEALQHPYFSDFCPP
T1 sequence (Q15078 99-307 partner limits assumed): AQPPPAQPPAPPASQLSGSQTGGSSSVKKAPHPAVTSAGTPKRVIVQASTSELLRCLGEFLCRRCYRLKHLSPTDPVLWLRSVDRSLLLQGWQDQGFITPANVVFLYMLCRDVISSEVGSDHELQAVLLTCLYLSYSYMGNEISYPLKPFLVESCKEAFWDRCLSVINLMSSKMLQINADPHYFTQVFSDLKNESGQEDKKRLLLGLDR
Summary of the method: (§2)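 TR-FRET (LANCE Ultra) kinase assay at ATP Km, ULight-MBP peptide substrate (68 nM), 8-dose 4-fold compound series in DMSO. Enzymes: […]; 60 min at 23° C., stopped with EDTA plus Eu-anti-phospho-MBP antibody, read 665/615 nm after 60 min.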

CDK1/Cyclin B = molecular target: T2, CDK1/Cyclin B (Homo sapiens, UniProt P06493); test: Enzymatic assay for CDK1 (FRET based LANCE Ultra kinase assay); format: biochemical
T2 construct: purchased Invitrogen PR4768C
T2 sequence (P06493 whole entry): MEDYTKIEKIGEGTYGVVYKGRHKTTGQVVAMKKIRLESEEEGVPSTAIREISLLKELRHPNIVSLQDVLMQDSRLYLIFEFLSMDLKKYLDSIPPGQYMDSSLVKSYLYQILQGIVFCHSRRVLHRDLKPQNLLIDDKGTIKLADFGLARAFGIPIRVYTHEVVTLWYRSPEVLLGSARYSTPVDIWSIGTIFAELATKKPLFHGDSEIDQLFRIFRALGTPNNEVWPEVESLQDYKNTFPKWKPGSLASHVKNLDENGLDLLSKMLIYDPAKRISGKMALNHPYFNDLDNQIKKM
T2 sequence (P14635 whole entry partner): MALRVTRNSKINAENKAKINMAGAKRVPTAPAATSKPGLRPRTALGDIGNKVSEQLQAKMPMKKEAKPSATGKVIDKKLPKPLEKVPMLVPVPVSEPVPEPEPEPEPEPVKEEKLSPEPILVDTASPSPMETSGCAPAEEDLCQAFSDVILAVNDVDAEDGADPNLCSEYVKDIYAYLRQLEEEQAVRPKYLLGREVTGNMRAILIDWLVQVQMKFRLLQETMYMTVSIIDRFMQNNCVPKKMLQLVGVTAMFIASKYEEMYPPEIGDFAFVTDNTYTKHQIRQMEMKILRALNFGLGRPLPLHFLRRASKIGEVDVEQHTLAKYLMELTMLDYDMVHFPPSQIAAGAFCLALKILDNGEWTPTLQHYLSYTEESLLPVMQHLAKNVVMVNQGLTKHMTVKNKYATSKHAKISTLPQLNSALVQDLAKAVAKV
Summary of the method: as §2

MV4-11 = test: Cellular MV4-11 viability assay (CellTiter-Glo, 72 hours); format: cell-based; settings: Homo sapiens
Summary of the method: as §1

CDK2/Cyclin A = molecular target: T3, CDK2/Cyclin A (Homo sapiens, UniProt P24941); test: Enzymatic assay for CDK2 (FRET based LANCE Ultra kinase assay); format: biochemical
T3 construct: purchased Invitrogen PV6290
Summary of the method: as §2

MOLT-4 = test: Cellular MOLT-4 viability assay (CellTiter-Glo, 72 hours); format: cell-based; settings: Homo sapiens, MOLT4 viability assay
Summary of the method: as §1

CDK7/Cyclin H/MNAT1 = molecular target: T4, CDK7/Cyclin H/MNAT1 (Homo sapiens, UniProt P50613); test: Enzymatic assay for CDK7 (FRET based LANCE Ultra kinase assay); format: biochemical
T4 construct: purchased Invitrogen PR6749B
T4 sequence (P50613 whole entry): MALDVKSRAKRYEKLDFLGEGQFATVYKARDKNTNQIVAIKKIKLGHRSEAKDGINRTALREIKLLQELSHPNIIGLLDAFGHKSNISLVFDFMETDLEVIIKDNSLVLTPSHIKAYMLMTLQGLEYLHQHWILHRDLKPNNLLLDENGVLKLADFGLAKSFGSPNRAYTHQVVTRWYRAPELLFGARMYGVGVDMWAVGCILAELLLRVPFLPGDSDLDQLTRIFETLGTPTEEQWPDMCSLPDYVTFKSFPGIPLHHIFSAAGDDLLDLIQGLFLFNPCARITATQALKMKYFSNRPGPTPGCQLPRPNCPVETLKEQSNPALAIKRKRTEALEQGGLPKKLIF
T4 sequence (P51946 whole entry partner): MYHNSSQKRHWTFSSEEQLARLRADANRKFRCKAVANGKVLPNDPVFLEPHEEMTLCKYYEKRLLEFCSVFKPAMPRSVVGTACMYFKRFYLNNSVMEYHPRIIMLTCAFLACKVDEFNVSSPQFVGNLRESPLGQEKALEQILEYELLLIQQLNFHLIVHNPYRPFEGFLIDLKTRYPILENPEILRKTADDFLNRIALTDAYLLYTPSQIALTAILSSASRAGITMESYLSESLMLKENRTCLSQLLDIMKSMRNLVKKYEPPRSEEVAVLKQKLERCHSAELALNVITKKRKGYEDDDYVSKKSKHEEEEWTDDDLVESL
T4 sequence (P51948 whole entry partner): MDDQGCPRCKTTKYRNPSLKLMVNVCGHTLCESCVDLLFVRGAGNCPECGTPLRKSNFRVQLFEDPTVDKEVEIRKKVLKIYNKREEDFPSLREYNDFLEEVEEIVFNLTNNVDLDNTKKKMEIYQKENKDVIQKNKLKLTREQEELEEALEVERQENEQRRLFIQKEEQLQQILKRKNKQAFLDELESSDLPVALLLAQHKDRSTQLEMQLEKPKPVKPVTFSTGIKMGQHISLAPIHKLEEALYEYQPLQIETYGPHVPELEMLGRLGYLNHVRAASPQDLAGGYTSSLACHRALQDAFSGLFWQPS
Summary of the method: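 Inhibition was measured at Km ATP by time-resolved FRET between a Eu anti-phospho antibody and a phosphorylated ULight peptide. The enzyme was the purified CDK7/cyclin complex, and data were curve-fitted.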

HCT116 = test: Cellular HCT116 viability assay (CellTiter-Glo, 72 hours); format: cell-based; settings: Homo sapiens, HCT-116
Summary of the method: as §1

RPMI-8226 = test: Cellular RPMI-8226 viability assay (CellTiter-Glo, 72 hours); format: cell-based; settings: Homo sapiens
Summary of the method: as §1

A2780 = test: Cellular A2780 viability assay (CellTiter-Glo, 72 hours); format: cell-based; settings: Homo sapiens
Excerpt: Human T-cell acute lymphoblastic leukemia cell line, MOLT-4 (ATCC, Cat #CRL-1582), Human multiple myeloma cell line, RPMI-8226 (Invitrogen, Cat #22400-089) and MM.1S (ATCC, Cat #CRL-2974), NSCLC (Non-small cell lung cancer) cell line H460 (ATCC, Cat #HTB-177), Human colon colorectal carcinoma cell line HCT116 (ATCC, Cat #CCL-247), Human acute monocytic leukemia cell line MV4-11 (ATCC, Cat #CRL-9591), OVCAR-3 (ATCC, Cat #HTB-161) and A2780 (ECACC, Cat #93112519) were obtained from ATCC. Cells were grown in RPMI-1640 media (Invitrogen, Cat #22400-089) supplemented with 10% FBS (Invitrogen, Cat #10099141) and 1% penicillin/streptomycin (Invitrogen, Cat #15070063) and cultured at 37° C., 5% CO2 in a humidified chamber. All cell lines were routinely tested for mycoplasma.
The effect of the CDK7 inhibitor to inhibit the growth of target cancer cells was evaluated through the 72 hours time period of viability assay. Briefly, the candidate cell line ware plated in 96 well plate at the following density of cells respectively. 1×10^4 cells/well for MOLT-4, RPMI-8226, MV4-11 and MM.1S, 5×10^3 for H460, HCT116 and OVCAR-3 and IX 10^3 for A2780. After 24 hours, the cells were treated with various concentrations of the compound (ranging from 0.0015 uM to 10 uM). DMSO solvent without compound served as a control and final DMSO concentration less than 0.1%. After 72 hours of incubation at 37° C., 5% CO2 incubator, cells were analyzed for the viability using the CellTiter-Glo Luminescent Cell Viability Assay (Promega, Cat #G7570). All viability assays were performed in duplicate and Luminescence was read using an Envision (Perkin Elmer, USA). Data was analyzed using XLfit software.

[1] = read-out: CDK5 enzymatic activity (IC50 range)
[2] = read-out: CDK1 enzymatic activity (IC50 range)
[3] = read-out: CDK2 enzymatic activity (IC50 range)
[4] = read-out: CDK7 enzymatic activity (IC50 range)

| IC50 (H460) | IC50 (CDK5/p25; [1]) | IC50 (CDK1/Cyclin B; [2]) | IC50 (MV4-11) | IC50 (CDK2/Cyclin A; [3]) | IC50 (MOLT-4) | CDK1/CDK7: Selectivity of CDK7 inhibition over CDK1 inhibition (CDK7/Cyclin H/MNAT1; CDK7 over CDK1) | IC50 (CDK7/Cyclin H/MNAT1; [4]) | IC50 (HCT116) | IC50 (RPMI-8226) | SMILES | CDK2/CDK7: Selectivity of CDK7 inhibition over CDK2 inhibition (CDK7/Cyclin H/MNAT1; CDK7 over CDK2) | CDK5/CDK7: Selectivity of CDK7 inhibition over CDK5 inhibition (CDK7/Cyclin H/MNAT1; CDK7 over CDK5) | further results |
| --- | --- | --- | --- | --- | --- | --- | --- | --- | --- | --- | --- | --- | --- |
| < 1 µM | < 0.1 µM | 0.1 to 1 µM | < 1 µM | 0.1 to 1 µM | 1 to 10 µM | A (A=greater than 200 fold) | < 0.1 µM | < 1 µM | < 1 µM | CC(C)c1cnn2c(NCc3ccccc3-n3cccn3)nc(N3CCC(C)(N)CC3)nc12 [Compound 27] | B (B=less than 200 fold, but greater than 20 fold) | B (B=less than 200 fold, but greater than 20 fold) | – |
| < 1 µM | < 0.1 µM | 0.1 to 1 µM | < 1 µM | 0.1 to 1 µM | 1 to 10 µM | A (A=greater than 200 fold) | < 0.1 µM | < 1 µM | < 1 µM | CC(C)c1cnn2c(NCc3ccccc3-c3cnc4ccccc4n3)nc(N3CCC(N)CC3)nc12 [Compound 80] | B (B=less than 200 fold, but greater than 20 fold) | B (B=less than 200 fold, but greater than 20 fold) | – |
| < 1 µM | < 0.1 µM | 0.1 to 1 µM | < 1 µM | 0.1 to 1 µM | < 1 µM | A (A=greater than 200 fold) | < 0.1 µM | < 1 µM | < 1 µM | CC(C)c1cnn2c(NCc3ccccc3-c3nc4ccccc4[nH]3)nc(N3CCC(N)CC3)nc12 [Compound 98] | B (B=less than 200 fold, but greater than 20 fold) | B (B=less than 200 fold, but greater than 20 fold) | – |
| < 1 µM | 0.1 to 1 µM | > 1 µM | < 1 µM | > 1 µM | 1 to 10 µM | A (A=greater than 200 fold) | – | < 1 µM | 1 to 10 µM | CC(C)c1cnn2c(NCc3ccccc3-n3ccc(-c4ccccc4)n3)nc(N3CCC(N)CC3)nc12 [Compound 99] | A (A=greater than 200 fold) | B (B=less than 200 fold, but greater than 20 fold) | IC50 (CDK7/Cyclin H/MNAT1): < 0.1 µM |
| < 1 µM | 0.1 to 1 µM | > 1 µM | < 1 µM | 0.1 to 1 µM | < 1 µM | A (A=greater than 200 fold) | < 0.1 µM | < 1 µM | < 1 µM | CC(C)c1cnn2c(NCc3ccccc3-n3cc4c(n3)CCCC4)nc(N3CCC(N)CC3)nc12 [Compound 109] | A (A=greater than 200 fold) | B (B=less than 200 fold, but greater than 20 fold) | – |
| < 1 µM | 0.1 to 1 µM | > 1 µM | < 1 µM | 0.1 to 1 µM | – | A (A=greater than 200 fold) | < 0.1 µM | – | – | CC(C)c1cnn2c(NCc3c(Cl)cccc3C#N)nc(N3CCC(N)CC3)nc12 [Compound 242] | B (B=less than 200 fold, but greater than 20 fold) | B (B=less than 200 fold, but greater than 20 fold) | IC50 (A2780): ≤ 1 µM |
| < 1 µM | > 1 µM | > 1 µM | < 1 µM | > 1 µM | – | A (A=greater than 200 fold) | < 0.1 µM | – | – | CC(C)c1cnn2c(NCc3ccccc3-c3ccc4cc(C(C)(C)O)ccc4n3)nc(N3CCC(O)(CN)CC3)nc12 [Compound 243] | A (A=greater than 200 fold) | A (A=greater than 200 fold) | IC50 (A2780): ≤ 1 µM |
| – | – | – | < 1 µM | – | – | – | – | – | – | CC(C)c1cnn2c(NCc3c(Cl)cccc3-n3ccc(C(C)(C)O)n3)nc(Nc3cccc4[nH]ccc34)nc12 [Compound 276] | – | – | IC50 (CDK5/p25; read-out: CDK5 enzymatic activity (IC50 activity range)): > 1 µM; IC50 (CDK1/Cyclin B; read-out: CDK1 enzymatic activity (IC50 activity range)): > 1 µM; IC50 (CDK2/Cyclin A; read-out: CDK2 enzymatic activity (IC50 activity range)): > 1 µM; IC50 (A2780): 1 to 10 µM; CDK1/CDK7: Selectivity of CDK7 inhibition over CDK1 inhibition (CDK7/Cyclin H/MNAT1; CDK1/CDK7): B (B=less than 200 fold, but greater than 20 fold); CDK2/CDK7: Selectivity of CDK7 inhibition over CDK2 inhibition (CDK7/Cyclin H/MNAT1; CDK2/CDK7): B (B=less than 200 fold, but greater than 20 fold); CDK5/CDK7: Selectivity of CDK7 inhibition over CDK5 inhibition (CDK7/Cyclin H/MNAT1; CDK5/CDK7): B (B=less than 200 fold, but greater than 20 fold); IC50 (CDK7/Cyclin H/MNAT1; read-out: CDK7 enzymatic activity (IC50 activity range)): > 1 µM |

| SMILES | IC50 (H460) | IC50 (CDK5/p25; [1]) | IC50 (CDK1/Cyclin B; [2]) | IC50 (MV4-11) | IC50 (CDK2/Cyclin A; [3]) | IC50 (MOLT-4) | CDK1/CDK7: Selectivity of CDK7 inhibition over CDK1 inhibition (CDK7/Cyclin H/MNAT1; CDK7 over CDK1) | IC50 (CDK7/Cyclin H/MNAT1; [4]) | IC50 (HCT116) | IC50 (RPMI-8226) | CDK2/CDK7: Selectivity of CDK7 inhibition over CDK2 inhibition (CDK7/Cyclin H/MNAT1; CDK7 over CDK2) | CDK5/CDK7: Selectivity of CDK7 inhibition over CDK5 inhibition (CDK7/Cyclin H/MNAT1; CDK7 over CDK5) | further results |
| --- | --- | --- | --- | --- | --- | --- | --- | --- | --- | --- | --- | --- | --- |
| NC1CCN(c2nc(NCc3ccccc3-n3cccn3)n3ncc(Br)c3n2)CC1 [Compound 18] | < 1 µM | < 0.1 µM | 0.1 to 1 µM | < 1 µM | 0.1 to 1 µM | 1 to 10 µM | B (B=less than 200 fold, but greater than 20 fold) | < 0.1 µM | < 1 µM | < 1 µM | B (B=less than 200 fold, but greater than 20 fold) | C (C=less than 20 fold) | – |
| CC(C)c1cnn2c(NCc3ccccc3-c3nc4ccccc4o3)nc(N3CCC(N)CC3)nc12 [Compound 97] | < 1 µM | 0.1 to 1 µM | 0.1 to 1 µM | < 1 µM | 0.1 to 1 µM | 1 to 10 µM | B (B=less than 200 fold, but greater than 20 fold) | < 0.1 µM | < 1 µM | < 1 µM | B (B=less than 200 fold, but greater than 20 fold) | B (B=less than 200 fold, but greater than 20 fold) | – |
| CC(C)c1cnn2c(NCc3ccccc3-c3cc4c(F)cccc4[nH]3)nc(N3CCC(N)CC3)nc12 [Compound 112] | < 1 µM | < 0.1 µM | 0.1 to 1 µM | < 1 µM | 0.1 to 1 µM | < 1 µM | B (B=less than 200 fold, but greater than 20 fold) | < 0.1 µM | < 1 µM | < 1 µM | B (B=less than 200 fold, but greater than 20 fold) | C (C=less than 20 fold) | – |
| CC(=O)Nc1ccc2[nH]c(-c3ccccc3CNc3nc(N4CCC(N)CC4)nc4c(C(C)C)cnn34)cc2c1 [Compound 116] | < 1 µM | < 0.1 µM | 0.1 to 1 µM | < 1 µM | < 0.1 µM | < 1 µM | B (B=less than 200 fold, but greater than 20 fold) | < 0.1 µM | < 1 µM | < 1 µM | B (B=less than 200 fold, but greater than 20 fold) | C (C=less than 20 fold) | – |
